Values of other authors, collected in PMC9516332 (Frontiers in Oncology, 2022).
Like-named read-outs stand apart in the source and are kept apart here.

How the values were obtained:
Conditions in all cases: cited from earlier work
[1] = target: panel of 255 wild-type kinases (Homo sapiens, UniProt Q9BUB5)
[2] = target: panel of 255 wild-type kinases (Homo sapiens, UniProt P16234)
[3] = target: panel of 255 wild-type kinases (Homo sapiens, UniProt Q9H2X6)
[4] = target: T1, panel of 255 wild-type kinases (Homo sapiens, UniProt P42681)
T1 sequence (P42681 1-527): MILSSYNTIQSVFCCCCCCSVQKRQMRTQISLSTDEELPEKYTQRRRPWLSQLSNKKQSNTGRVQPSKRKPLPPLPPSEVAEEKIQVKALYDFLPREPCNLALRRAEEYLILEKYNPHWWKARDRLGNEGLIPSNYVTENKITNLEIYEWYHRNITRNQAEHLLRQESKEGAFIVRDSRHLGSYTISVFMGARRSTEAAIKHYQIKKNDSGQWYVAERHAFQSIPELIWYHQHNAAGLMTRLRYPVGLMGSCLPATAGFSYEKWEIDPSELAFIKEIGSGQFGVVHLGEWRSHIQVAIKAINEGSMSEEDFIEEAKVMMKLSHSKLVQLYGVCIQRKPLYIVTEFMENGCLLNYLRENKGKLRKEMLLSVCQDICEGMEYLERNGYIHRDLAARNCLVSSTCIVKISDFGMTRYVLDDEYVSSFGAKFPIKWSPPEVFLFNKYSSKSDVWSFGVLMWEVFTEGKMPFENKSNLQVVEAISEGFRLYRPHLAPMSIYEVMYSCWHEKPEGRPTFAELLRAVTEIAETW

[5] = target: panel of 255 wild-type kinases (Homo sapiens, UniProt Q9NYA1)
[6] = target: T2, panel of 255 wild-type kinases (Homo sapiens, UniProt P15735)
T2 sequence (P15735 1-406): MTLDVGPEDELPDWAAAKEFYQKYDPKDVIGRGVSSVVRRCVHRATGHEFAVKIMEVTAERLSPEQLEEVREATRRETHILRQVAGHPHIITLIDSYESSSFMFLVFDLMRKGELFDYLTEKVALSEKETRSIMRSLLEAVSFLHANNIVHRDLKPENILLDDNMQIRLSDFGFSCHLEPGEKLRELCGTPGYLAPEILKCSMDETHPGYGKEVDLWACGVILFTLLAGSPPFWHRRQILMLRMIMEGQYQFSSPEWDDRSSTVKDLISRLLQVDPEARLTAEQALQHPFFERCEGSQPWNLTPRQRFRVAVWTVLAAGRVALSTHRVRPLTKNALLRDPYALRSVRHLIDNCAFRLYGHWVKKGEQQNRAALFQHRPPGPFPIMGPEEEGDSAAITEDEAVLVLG

[7] = target: panel of 255 wild-type kinases (Homo sapiens, UniProt P51617)
[8] = target: panel of 255 wild-type kinases (Homo sapiens, UniProt Q15119)
[9] = target: panel of 255 wild-type kinases (Homo sapiens, UniProt P45983)
[10] = target: T3, panel of 255 wild-type kinases (Homo sapiens, UniProt Q8NE63)
T3 sequence (Q8NE63 1-616): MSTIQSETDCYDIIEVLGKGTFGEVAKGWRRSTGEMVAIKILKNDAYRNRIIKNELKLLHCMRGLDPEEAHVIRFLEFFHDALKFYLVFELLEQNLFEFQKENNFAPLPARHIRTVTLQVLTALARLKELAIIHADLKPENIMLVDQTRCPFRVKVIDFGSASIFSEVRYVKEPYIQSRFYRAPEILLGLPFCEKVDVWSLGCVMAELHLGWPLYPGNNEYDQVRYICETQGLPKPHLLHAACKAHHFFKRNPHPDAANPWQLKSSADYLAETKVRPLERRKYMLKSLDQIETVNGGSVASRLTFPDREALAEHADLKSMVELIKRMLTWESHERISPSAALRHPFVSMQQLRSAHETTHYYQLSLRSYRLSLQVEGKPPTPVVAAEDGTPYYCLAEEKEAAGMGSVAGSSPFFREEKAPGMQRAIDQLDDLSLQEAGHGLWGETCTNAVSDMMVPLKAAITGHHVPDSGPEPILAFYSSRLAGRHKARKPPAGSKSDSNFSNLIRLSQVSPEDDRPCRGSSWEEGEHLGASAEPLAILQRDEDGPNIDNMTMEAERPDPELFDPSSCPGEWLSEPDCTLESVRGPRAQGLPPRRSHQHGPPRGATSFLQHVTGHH

[11] = target: panel of 255 wild-type kinases (Homo sapiens, UniProt Q9H4A3)
[12] = MNK1, 1 µmol/L single concentration, ref DOI: 10.1158/1535-7163.MCT-18-0877
[13] = kinase PDGFRα, 1 µmol/L single concentration, ref DOI: 10.1158/1535-7163.MCT-18-0877
[14] = kinase HIPK2, 1 µmol/L single concentration, ref DOI: 10.1158/1535-7163.MCT-18-0877
[15] = kinase TXK, 1 µmol/L single concentration, ref DOI: 10.1158/1535-7163.MCT-18-0877
[16] = kinase SPHK1, 1 µmol/L single concentration, ref DOI: 10.1158/1535-7163.MCT-18-0877
[17] = kinase PHKG2, 1 µmol/L single concentration, ref DOI: 10.1158/1535-7163.MCT-18-0877
[18] = kinase IRAK1, 1 µmol/L single concentration, ref DOI: 10.1158/1535-7163.MCT-18-0877
[19] = kinase PDHK2, 1 µmol/L single concentration, ref DOI: 10.1158/1535-7163.MCT-18-0877
[20] = kinase JNK1, 1 µmol/L single concentration, ref DOI: 10.1158/1535-7163.MCT-18-0877
[21] = kinase HIPK4, 1 µmol/L single concentration, ref DOI: 10.1158/1535-7163.MCT-18-0877
[22] = kinase WNK1, 1 µmol/L single concentration, ref DOI: 10.1158/1535-7163.MCT-18-0877

SMILES | %-inhibition, MNK1 [1, 12] [%] | %-inhibition at 1 µmol/L, PDGFRα [2, 13] [%] | %-inhibition at 1 µmol/L, HIPK2 [3, 14] [%] | %-inhibition at 1 µmol/L, TXK [4, 15] [%] | %-inhibition at 1 µmol/L, SPHK1 [5, 16] [%] | %-inhibition at 1 µmol/L, PHKG2 [6, 17] [%] | %-inhibition at 1 µmol/L, IRAK1 [7, 18] [%] | %-inhibition at 1 µmol/L, PDHK2 [8, 19] [%] | %-inhibition at 1 µmol/L, JNK1 [9, 20] [%] | %-inhibition at 1 µmol/L, HIPK4 [10, 21] [%] | %-inhibition at 1 µmol/L, WNK1 [11, 22] [%] | further results
CC(C)(C)c1nc(-c2cccc(NS(=O)(=O)c3c(F)cccc3F)c2F)c(-c2ccnc(N)n2)s1 [dabrafenib] | – | – | – | – | – | – | – | – | – | – | – | %-inhibition, MNK1 ([1]; MNK1, 1 µmol/L single concentration, ref DOI: 10.1371/journal.pone.0092146): 20%; %-inhibition at 1 µmol/L, PDGFRα ([2]; kinase PDGFRα, 1 µmol/L single concentration, ref DOI: 10.1371/journal.pone.0092146): 63%; %-inhibition at 1 µmol/L, HIPK2 ([3]; kinase HIPK2, 1 µmol/L single concentration, ref DOI: 10.1371/journal.pone.0092146): 42%; %-inhibition at 1 µmol/L, TXK ([4]; kinase TXK, 1 µmol/L single concentration, ref DOI: 10.1371/journal.pone.0092146): 18%; %-inhibition at 1 µmol/L, SPHK1 ([5]; kinase SPHK1, 1 µmol/L single concentration, ref DOI: 10.1371/journal.pone.0092146): -18%; %-inhibition at 1 µmol/L, PHKG2 ([6]; kinase PHKG2, 1 µmol/L single concentration, ref DOI: 10.1371/journal.pone.0092146): 2%; %-inhibition at 1 µmol/L, IRAK1 ([7]; kinase IRAK1, 1 µmol/L single concentration, ref DOI: 10.1371/journal.pone.0092146): -48%; %-inhibition at 1 µmol/L, PDHK2 ([8]; kinase PDHK2, 1 µmol/L single concentration, ref DOI: 10.1371/journal.pone.0092146): 0.108%; %-inhibition at 1 µmol/L, JNK1 ([9]; kinase JNK1, 1 µmol/L single concentration, ref DOI: 10.1371/journal.pone.0092146): -1.12%; %-inhibition at 1 µmol/L, HIPK4 ([10]; kinase HIPK4, 1 µmol/L single concentration, ref DOI: 10.1371/journal.pone.0092146): 92%; %-inhibition at 1 µmol/L, WNK1 ([11]; kinase WNK1, 1 µmol/L single concentration, ref DOI: 10.1371/journal.pone.0092146): 1.14%
CO[C@@H]1[C@H](N(C)C(=O)c2ccccc2)C[C@H]2O[C@]1(C)n1c3ccccc3c3c4c(c5c6ccccc6n2c5c31)C(=O)NC4 [midostaurin] | 50 | 99 | 34 | 25 | -2.46 | 67 | 10 | -1.18 | 9 | 63 | 5.36 | –
CC#CC(=O)N1CCC[C@H]1c1nc(-c2ccc(C(=O)Nc3ccccn3)cc2)c2c(N)nccn12 [acalabrutinib] | 12 | 1.38 | -11 | 68 | -3 | 0.00605 | -7 | 0.164 | -0.882 | -10 | 5.36 | –
CCc1cc2c(cc1N1CCC(N3CCOCC3)CC1)C(C)(C)c1[nH]c3cc(C#N)ccc3c1C2=O [alectinib] | 18 | 43 | 8 | 2.46 | -10 | 75 | 92 | 0.393 | 3.24 | 26 | 6 | –
COc1cc(N2CCC(N3CCN(C)CC3)CC2)ccc1Nc1ncc(Cl)c(Nc2ccccc2P(C)(C)=O)n1 [brigatinib] | – | – | – | – | – | – | – | – | – | – | – | %-inhibition, MNK1 [1]: 16%; %-inhibition at 1 µmol/L, PDGFRα [2]: 96%; %-inhibition at 1 µmol/L, HIPK2 [3]: 9%; %-inhibition at 1 µmol/L, TXK [4]: 76%; %-inhibition at 1 µmol/L, SPHK1 [5]: -4%; %-inhibition at 1 µmol/L, PHKG2 [6]: 96%; %-inhibition at 1 µmol/L, IRAK1 [7]: 69%; %-inhibition at 1 µmol/L, PDHK2 [8]: 2%; %-inhibition at 1 µmol/L, JNK1 [9]: 40%; %-inhibition at 1 µmol/L, HIPK4 [10]: 81%; %-inhibition at 1 µmol/L, WNK1 [11]: 5%
